Data reported in EP0377642B1, “HERBICIDES FOR WEED CONTROL IN RICE” (E.I. DU PONT DE NEMOURS AND COMPANY, priority 1987, dated 1989).
Read-outs that look alike come from different tables or passages of the source.

What was measured:
Assay type in all cases: in vivo
[1] = test system: transplanted rice (var. Nihonbare); experiment: Crop tolerance of transplanted rice, combinations with Thiobencarb, Dimepiperate, Esprocarb and Dymron (Table 15)
Description: (§1) Methyl 2-[[[[(4-methoxy-6-methyl-1,3,5-triazin-2-yl)amino]carbonyl]amino]sulfonyl]benzoate (Compound 1) and mixtures thereof with other compounds were applied as a spray (using a hand sprayer) to rice (either transplanted or direct seeded) in several rice growing areas in Southeast Asia and in the U.S. Tables 1-28 contain the results of these tests and clearly exemplify the utility of this invention. The details of each application are included in the appropriate table. [drawing 2]

rice [2] = experiment: Effects on rice growth in Thailand, phytotoxicity (Table 2); conditions: 600 GAI/HA, scale 0-10
Description: as §1

FIMBRISTYLIS MILIACEA [3] = experiment: Herbicidal efficacy alone and with 2,4-D in Thailand (Table 3); conditions: 600 GAI/HA, 6 weeks after application
Description: as §1

rice [4] = experiment: Effects on rice growth in Thailand, phytotoxicity (Table 4); conditions: 600 GAI/HA, scale 0-10
Description: as §1

direct seeded rice = conditions: 1,500 GM.A.I./HA; for PHYTO at 2WAA: scale 0-10
Description: as §1

Cyperus difformis = experiment: Field test applied at 7 DAS in direct seeded rice (Table 11); conditions: 1,500 GM.A.I./HA, scale 0-10
Description: as §1

Sphenoclea zeylanica [5] = experiment: as above; conditions: 1,500 GM.A.I./HA, scale 0-10
Description: as §1

Cyperus iria [6] = experiment: Field test applied at 18 DAS in direct seeded rice (Table 12); conditions: 1,500 GM.A.I./HA, scale 0-10
Description: as §1

FIMBRISTYLIS MILIACEA [7] = experiment: as above; conditions: 1,500 GM.A.I./HA, scale 0-10
Description: as §1

Jussiaea linifolia = experiment: as above; conditions: 1,500 GM.A.I./HA, scale 0-10
Description: as §1

Sphenoclea zeylanica [8] = experiment: as above; conditions: 1,500 GM.A.I./HA, scale 0-10
Description: as §1

Cyperus iria [9] = experiment: Field test applied at 25 DAS in direct seeded rice (Table 13); conditions: 1,500 GM.A.I./HA, scale 0-10
Description: as §1

Sphenoclea zeylanica [10] = experiment: as above; conditions: 1,500 GM.A.I./HA, scale 0-10
Description: as §1

rice [11] = experiment: Effects in combination with Bensulfuron Methyl and Thiobencarb or Pretilachlor on rice growth (Table 23); conditions: var. Koshihikari, applied 7 days after transplanting, rated 21 days after application
Description: as §1

rice [12] = experiment: Effects in combination with Thiobencarb and Bensulfuron Methyl on rice growth (Table 22); conditions: var. Koshihikari, applied 7 days after transplanting, rated 21 days after application
Description: as §1

WEED [13] = experiment: Effects in combination with Bensulfuron Methyl and Thiobencarb or Pretilachlor on weed control (Table 24); conditions: scale 0 to 10, treated at 1.0 leaf stage, evaluated four weeks later; for WEED CONTROL RATINGS CD: Cyperus difformis; for WEED CONTROL RATINGS CS: Cyperus serotinus; for WEED CONTROL RATINGS EO: Echinochloa oryzicola; for WEED CONTROL RATINGS BL: Lindernia pyxidaria; for WEED CONTROL RATINGS MV: Monochoria vaginalis; for WEED CONTROL RATINGS SP: Sagittaria pygmaea; for WEED CONTROL RATINGS SJ: Scirpus juncoides
Description: as §1

WEED [14] = experiment: Effects in combination with Bensulfuron Methyl and Thiobencarb or Pretilachlor on weed control (Table 25); conditions: scale 0 to 10, treated at 2.0 leaf stage, evaluated four weeks later; for WEED CONTROL RATINGS CD: Cyperus difformis; for WEED CONTROL RATINGS CS: Cyperus serotinus; for WEED CONTROL RATINGS EO: Echinochloa oryzicola; for WEED CONTROL RATINGS BL: Lindernia pyxidaria; for WEED CONTROL RATINGS MV: Monochoria vaginalis; for WEED CONTROL RATINGS SP: Sagittaria pygmaea; for WEED CONTROL RATINGS SJ: Scirpus juncoides
Description: as §1

weeds = experiment: Greenhouse test of Compound 1 and Compound 2, herbicidal efficacy (Table 26); conditions: rated 24 days after treatment; for % CONTROL OR INJURY AT: Alisma triviale; for % CONTROL OR INJURY AP: Alternanthera philoxeroides; for % CONTROL OR INJURY CD: Cyperus difformis; for % CONTROL OR INJURY SR: Sagittaria rigida
Description: as §1

[15] = 2100 GAI/HA, 15 days after application
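Wherever YIELD is given: yield in Tons/ha.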

## CCN(C(=O)SCc1ccccc1)C(C)C(C)C (centres unmarked) [Esprocarb, S-benzyl-N-ethyl-N-(1,2-dimethyl)-propylthiol carbamate]
[1]; [15]
  CROP TOLERANCE (Nihonbare) DW, dry weight relative to untreated check: 94%
  CROP TOLERANCE (Nihonbare) PH, plant height relative to untreated check: 92%
  CROP TOLERANCE (Nihonbare) VA, visual crop injury: 0%

## O=C([O-])COc1ccc(Cl)cc1Cl.[Na+] [2,4-D (SODIUM SALT), 2,4-dichlorophenoxyacetic acid, sodium salt]
Rice [2]; applied 7 DAS
  PHYTOTOXICITY: 2.33
Rice [2]; applied 14 DAS
  PHYTOTOXICITY: 1.33
Rice [2]; applied 21 DAS
  PHYTOTOXICITY: 0
Rice [2]; applied 28 DAS
  PHYTOTOXICITY: 0
FIMBRISTYLIS MILIACEA [3]; applied 7 DAS
  FIMBRISTYLIS MILIACEA CONTROL: 96%
FIMBRISTYLIS MILIACEA [3]; applied 14 DAS
  FIMBRISTYLIS MILIACEA CONTROL: 95%
FIMBRISTYLIS MILIACEA [3]; applied 21 DAS
  FIMBRISTYLIS MILIACEA CONTROL: 93%
FIMBRISTYLIS MILIACEA [3]; applied 28 DAS
  FIMBRISTYLIS MILIACEA CONTROL: 98%
Rice [4]; applied 7 DAS
  PHYTOTOXICITY: 5.0
Rice [4]; applied 14 DAS
  PHYTOTOXICITY: 3.67
Rice [4]; applied 21 DAS
  PHYTOTOXICITY: 3.0
Rice [4]; applied 28 DAS
  PHYTOTOXICITY: 1
Direct seeded rice; 7 DAS
  YIELD: 4.13 TONS/HA
  PHYTO at 2WAA: 0
Direct seeded rice; 18 DAS
  YIELD: 4.59 TONS/HA
  PHYTO at 2WAA: 0
Cyperus difformis
  WEED CONTROL at 6 WAA CD: 10
Sphenoclea zeylanica [5]
  WEED CONTROL at 6 WAA SZ: 6.0
Cyperus iria [6]
  WEED CONTROL at 6 WAA CI: 9.33
FIMBRISTYLIS MILIACEA [7]
  WEED CONTROL at 6 WAA FM: 9.33
Jussiaea linifolia
  WEED CONTROL at 6 WAA JL: 10
Sphenoclea zeylanica [8]
  WEED CONTROL at 6 WAA SZ: 4.67
Cyperus iria [9]
  WEED CONTROL at 6 WAA CI: 10
Sphenoclea zeylanica [10]
  WEED CONTROL at 6 WAA SZ: 6.67

## CC(C)(SC(=O)N1CCCCC1)c1ccccc1 [Dimepiperate, S-1-methyl-1-phenylethylpiperidine-1-carbothioate]
[1]; in vivo
  CROP TOLERANCE (Nihonbare) PH, plant height relative to untreated check: 102%
  CROP TOLERANCE (Nihonbare) VA, visual crop injury: 0%

## Cc1ccc(NC(=O)NC(C)(C)c2ccccc2)cc1 [Dymron, 1-(α,α-dimethylbenzyl)-3-p-tolylurea]
[1]; [15]
  CROP TOLERANCE (Nihonbare) DW, dry weight relative to untreated check: 107%
  CROP TOLERANCE (Nihonbare) PH, plant height relative to untreated check: 102%
  CROP TOLERANCE (Nihonbare) VA, visual crop injury: 0%

## CCCOCCN(C(=O)CCl)c1c(CC)cccc1CC [Pretilachlor]
Rice [11]; rate 600 g ai/ha
  CROP TOLERANCE DW (Dry weight relative to untreated check): 71%
  CROP TOLERANCE PH (Plant height relative to untreated check): 87%
  CROP TOLERANCE VA (Visual crop injury): 3%

## COC(=O)c1ccccc1CS(=O)(=O)NC(=O)Nc1nc(OC)cc(OC)n1
Rice [12]; rate 75 g ai/ha
  CROP TOLERANCE DW (Dry weight relative to untreated check): 76%
  CROP TOLERANCE PH (Plant height relative to untreated check): 84%
  CROP TOLERANCE VA (Visual crop injury): 3.5%

## CCCCOC(=O)COc1ccc(Cl)cc1Cl [2,4-D (BUTYL ESTER), reference compound]
FIMBRISTYLIS MILIACEA [3]; applied 7 DAS
  FIMBRISTYLIS MILIACEA CONTROL: 94%
FIMBRISTYLIS MILIACEA [3]; applied 14 DAS
  FIMBRISTYLIS MILIACEA CONTROL: 98%
FIMBRISTYLIS MILIACEA [3]; applied 21 DAS
  FIMBRISTYLIS MILIACEA CONTROL: 60%
FIMBRISTYLIS MILIACEA [3]; applied 28 DAS
  FIMBRISTYLIS MILIACEA CONTROL: 43%

## CCCOCCN(C(=O)CCl)c1c(CC)cccc1CC [PRETILACHLOR]
WEED [13]; rate 600 g ai/ha
  WEED CONTROL RATINGS CD: 10
  WEED CONTROL RATINGS CS: 3
  WEED CONTROL RATINGS EO: 10
  WEED CONTROL RATINGS BL: 10
  WEED CONTROL RATINGS MV: 5
  WEED CONTROL RATINGS SP: 3
  WEED CONTROL RATINGS SJ: 5
WEED [14]; rate 600 g ai/ha
  WEED CONTROL RATINGS CD: 10
  WEED CONTROL RATINGS CS: 3
  WEED CONTROL RATINGS EO: 7
  WEED CONTROL RATINGS BL: 7
  WEED CONTROL RATINGS MV: 3
  WEED CONTROL RATINGS SP: 6
  WEED CONTROL RATINGS SJ: 2

## COC(=O)c1ccccc1S(=O)(=O)NC(=O)Nc1nc(OC)cc(OC)n1 [Compound 2, methyl 2-[[[[(4,6-dimethoxy-2-pyrimidinyl)amino]carbonyl]amino]sulfonyl]benzoate]
weeds; rate 1 g ai/ha
  % CONTROL OR INJURY AT: 95%
  % CONTROL OR INJURY AP: 0%
  % CONTROL OR INJURY CD: 70%
  % CONTROL OR INJURY SR: 0%
weeds; rate 2 g ai/ha
  % CONTROL OR INJURY AT: 95%
  % CONTROL OR INJURY AP: 0%
  % CONTROL OR INJURY CD: 80%
  % CONTROL OR INJURY SR: 0%
weeds; rate 4 g ai/ha
  % CONTROL OR INJURY AT: 95%
  % CONTROL OR INJURY AP: 20%
  % CONTROL OR INJURY CD: 100%
  % CONTROL OR INJURY SR: 80%
weeds; rate 8 g ai/ha
  % CONTROL OR INJURY AT: 95%
  % CONTROL OR INJURY AP: 30%
  % CONTROL OR INJURY CD: 100%
  % CONTROL OR INJURY SR: 80%

## CCN(CC)C(=O)SCc1ccc(Cl)cc1 [Thiobencarb, S-[(4-chlorophenyl)methyl]diethylcarbamothioate, reference compound]
[1]; [15]
  CROP TOLERANCE (Nihonbare) DW, dry weight relative to untreated check: 112%
  CROP TOLERANCE (Nihonbare) PH, plant height relative to untreated check: 102%
  CROP TOLERANCE (Nihonbare) VA, visual crop injury: 0%
Rice [12]; rate 2100 g ai/ha
  CROP TOLERANCE DW (Dry weight relative to untreated check): 99%
  CROP TOLERANCE PH (Plant height relative to untreated check): 99%
  CROP TOLERANCE VA (Visual crop injury): 0%
Rice [11]; rate 2100 g ai/ha
  CROP TOLERANCE DW (Dry weight relative to untreated check): 81%
  CROP TOLERANCE PH (Plant height relative to untreated check): 93%
  CROP TOLERANCE VA (Visual crop injury): 2%
WEED [13]; rate 2100 g ai/ha
  WEED CONTROL RATINGS CD: 10
  WEED CONTROL RATINGS CS: 9
  WEED CONTROL RATINGS EO: 10
  WEED CONTROL RATINGS BL: 9
  WEED CONTROL RATINGS MV: 10
  WEED CONTROL RATINGS SP: 0
  WEED CONTROL RATINGS SJ: 7
WEED [14]; rate 2100 g ai/ha
  WEED CONTROL RATINGS CD: 10
  WEED CONTROL RATINGS CS: 2
  WEED CONTROL RATINGS EO: 6
  WEED CONTROL RATINGS BL: 9.5
  WEED CONTROL RATINGS MV: 10
  WEED CONTROL RATINGS SP: 0
  WEED CONTROL RATINGS SJ: 8.5
